Measured values published in patent US8912186B2, “Allosteric protein kinase modulators” (Universitaet des Saarlandes, priority 2008, dated 2014).

Key:
Format in all cases: biochemical
[1] = target: T1, PDK1 (Homo sapiens, UniProt O15530); experiment: cell-free kinase activity assay (ATPgamma[32P], T308tide substrate); conditions: for AC50 / AC50 PDK1 (μM): concentration of the compound required to activate half maximally; for AC50 / max. activation of PDK1 (fold) / AC50 PDK1 (μM): n.e.: no effect; for max. activation of PDK1 (fold): maximum activation achievable, compared to the basal activity of PDK1
T1 construct: GST
T1 sequence (O15530 1-556): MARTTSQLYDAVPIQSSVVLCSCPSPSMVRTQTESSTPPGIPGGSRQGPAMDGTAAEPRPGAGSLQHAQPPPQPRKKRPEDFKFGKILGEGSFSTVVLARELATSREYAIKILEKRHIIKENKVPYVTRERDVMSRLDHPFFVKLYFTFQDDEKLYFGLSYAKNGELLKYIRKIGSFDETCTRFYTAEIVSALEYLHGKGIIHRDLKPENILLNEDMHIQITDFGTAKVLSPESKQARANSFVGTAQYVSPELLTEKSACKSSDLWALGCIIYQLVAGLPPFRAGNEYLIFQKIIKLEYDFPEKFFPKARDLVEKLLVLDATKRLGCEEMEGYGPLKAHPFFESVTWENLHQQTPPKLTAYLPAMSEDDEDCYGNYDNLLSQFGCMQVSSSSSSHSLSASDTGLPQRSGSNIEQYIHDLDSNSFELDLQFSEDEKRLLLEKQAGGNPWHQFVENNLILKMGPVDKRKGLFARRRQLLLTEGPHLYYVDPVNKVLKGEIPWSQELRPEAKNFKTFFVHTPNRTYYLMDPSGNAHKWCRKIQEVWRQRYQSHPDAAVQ
Excerpt: Principle of the cell-free kinase activity assay: In general, the activity of the compounds as protein kinase inhibitors or activators may be assayed in vitro (cell free assay is meant here), in vivo or in a cell line. In vitro assays include assays that determine inhibition or activation of either the phosphorylation activity or ATPase activity of the activated protein kinase. Alternate in vitro assays quantitate the ability of the inhibitor to bind to the protein kinase. Compound binding may be measured by radiolabelling the compound prior to binding, isolating the inhibitor or activator/protein kinase complex and determining the amount of radiolabel bound. Alternatively, inhibitor or activator binding may be determined by running a competition experiment where new compounds are incubated with the protein kinase bound to known radioligands. Newer methods comprise fluorescence polarisation assays and surface plasmon resonance dependent techniques. […] The activity and modulation of activity is measured using a standard ATPgamma[^32P] assay as described earlier. […] The concentration of T308tide is 1 mM and the amount of PDK1 used is 200 ng. Reactions are carried out at room temperature. Reaction is started by addition of ATP-Mg mix and stopped with phosphoric acid after 30 min. Stopped reactions were spotted on to phosphocellulose paper (P81, Whatman) and washed. After drying, the radioactivity associated to the band was quantified.

[2] = target: PKA (Homo sapiens, UniProt P17612); experiment: cell-free kinase activity assay; conditions: DMSO control set 100%
[3] = target: S6K (Homo sapiens, UniProt P23443); experiment: cell-free kinase activity assay; conditions: DMSO control set 100%
Sequence of S6K (P23443 whole entry): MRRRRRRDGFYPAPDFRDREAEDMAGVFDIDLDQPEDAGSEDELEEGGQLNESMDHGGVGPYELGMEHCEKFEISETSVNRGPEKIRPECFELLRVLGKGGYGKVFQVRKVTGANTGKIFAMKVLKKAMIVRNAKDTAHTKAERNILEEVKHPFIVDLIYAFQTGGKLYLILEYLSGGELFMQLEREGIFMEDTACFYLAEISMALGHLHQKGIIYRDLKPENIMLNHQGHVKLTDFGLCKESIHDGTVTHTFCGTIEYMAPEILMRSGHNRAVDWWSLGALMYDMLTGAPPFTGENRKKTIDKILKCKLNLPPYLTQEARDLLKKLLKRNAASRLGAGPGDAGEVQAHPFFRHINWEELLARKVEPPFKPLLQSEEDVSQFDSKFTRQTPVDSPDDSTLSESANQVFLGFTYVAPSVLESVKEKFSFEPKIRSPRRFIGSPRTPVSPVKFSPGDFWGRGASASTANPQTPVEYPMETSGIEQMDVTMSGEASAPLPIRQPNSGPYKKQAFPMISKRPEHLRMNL

[4] = target: T2, SGK (Homo sapiens, UniProt O00141); experiment: cell-free kinase activity assay; conditions: DMSO control set 100%
T2 sequence (O00141 1-431): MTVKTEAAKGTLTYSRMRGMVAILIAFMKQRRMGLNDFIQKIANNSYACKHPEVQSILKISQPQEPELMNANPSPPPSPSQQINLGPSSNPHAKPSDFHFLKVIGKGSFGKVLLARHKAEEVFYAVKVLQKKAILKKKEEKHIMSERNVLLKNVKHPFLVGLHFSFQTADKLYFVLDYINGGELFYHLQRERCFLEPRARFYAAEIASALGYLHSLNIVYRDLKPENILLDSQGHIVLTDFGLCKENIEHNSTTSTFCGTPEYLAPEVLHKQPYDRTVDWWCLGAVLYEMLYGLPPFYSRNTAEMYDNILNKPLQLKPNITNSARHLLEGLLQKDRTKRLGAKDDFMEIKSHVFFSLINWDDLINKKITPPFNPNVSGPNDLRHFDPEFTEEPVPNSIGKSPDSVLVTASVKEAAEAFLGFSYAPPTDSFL

[5] = target: PKBβ (Homo sapiens, UniProt P31751); experiment: cell-free kinase activity assay; conditions: DMSO control set 100%
Sequence of PKBβ (P31751 whole entry, species assumed): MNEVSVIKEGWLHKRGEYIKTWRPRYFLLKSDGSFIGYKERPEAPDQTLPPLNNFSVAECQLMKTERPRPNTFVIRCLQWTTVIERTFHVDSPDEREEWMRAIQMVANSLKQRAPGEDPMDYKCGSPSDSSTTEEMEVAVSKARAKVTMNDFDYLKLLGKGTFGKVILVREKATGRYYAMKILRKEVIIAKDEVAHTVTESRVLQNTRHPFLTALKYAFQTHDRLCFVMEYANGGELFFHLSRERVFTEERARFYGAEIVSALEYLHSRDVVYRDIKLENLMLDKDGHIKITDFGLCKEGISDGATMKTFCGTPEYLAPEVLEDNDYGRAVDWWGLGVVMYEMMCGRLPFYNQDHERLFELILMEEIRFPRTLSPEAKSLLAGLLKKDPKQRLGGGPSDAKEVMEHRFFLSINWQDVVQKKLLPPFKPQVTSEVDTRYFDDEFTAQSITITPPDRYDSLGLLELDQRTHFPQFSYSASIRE

[6] = target: PRK2 (Homo sapiens, UniProt Q16513); experiment: cell-free kinase activity assay; conditions: DMSO control set 100%
Sequence of PRK2 (Q16513 whole entry, species assumed): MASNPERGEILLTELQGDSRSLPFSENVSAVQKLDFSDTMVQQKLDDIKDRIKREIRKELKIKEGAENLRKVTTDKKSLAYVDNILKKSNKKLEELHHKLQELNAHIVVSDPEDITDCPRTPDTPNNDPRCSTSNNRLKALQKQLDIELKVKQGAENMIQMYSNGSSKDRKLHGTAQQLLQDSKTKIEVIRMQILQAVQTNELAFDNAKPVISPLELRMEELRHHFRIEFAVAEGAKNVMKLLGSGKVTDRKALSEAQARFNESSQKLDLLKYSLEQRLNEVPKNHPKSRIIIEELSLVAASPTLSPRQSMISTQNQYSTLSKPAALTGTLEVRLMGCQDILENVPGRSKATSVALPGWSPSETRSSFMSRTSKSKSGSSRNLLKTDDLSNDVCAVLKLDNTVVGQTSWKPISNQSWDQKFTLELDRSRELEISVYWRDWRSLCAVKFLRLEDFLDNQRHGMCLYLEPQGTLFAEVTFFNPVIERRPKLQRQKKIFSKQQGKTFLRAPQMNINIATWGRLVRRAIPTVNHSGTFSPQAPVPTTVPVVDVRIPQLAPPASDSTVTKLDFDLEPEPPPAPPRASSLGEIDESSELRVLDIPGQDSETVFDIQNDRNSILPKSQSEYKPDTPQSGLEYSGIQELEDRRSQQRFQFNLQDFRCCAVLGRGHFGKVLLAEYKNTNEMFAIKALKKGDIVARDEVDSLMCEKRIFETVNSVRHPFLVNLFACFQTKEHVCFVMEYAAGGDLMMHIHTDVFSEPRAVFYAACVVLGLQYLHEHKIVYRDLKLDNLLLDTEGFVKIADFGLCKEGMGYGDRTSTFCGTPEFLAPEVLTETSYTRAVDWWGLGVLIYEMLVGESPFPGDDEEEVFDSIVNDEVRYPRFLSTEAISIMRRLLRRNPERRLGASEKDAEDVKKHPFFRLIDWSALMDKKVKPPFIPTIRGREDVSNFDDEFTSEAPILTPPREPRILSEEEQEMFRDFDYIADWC

Row | SMILES | AC50 [1] [µM] | max. activation of PDK1 (fold) [1] | other results
1 | O=C(O)C=C(c1ccccc1)c1cc2cc(Cl)ccc2o1 (mixture of isomers) [PS 101, (E/Z)-3-(5-Chloro-2-benzofuranyl)-3-phenylacrylic acid] | 31.6 | 3.2 fold | –
2 | Cc1ccc2oc(C(=CC(=O)O)c3ccccc3)cc2c1 (mixture of isomers) [PS 103, (E/Z)-3-(5-Methyl-2-benzofuranyl)-3-phenylacrylic acid] | 41.3 | 3.1 fold | –
3 | O=C(O)/C=C(\CCc1cccc(Cl)c1)c1ccccc1 [PS 88, (E)-5-(3-Chlorophenyl)-3-phenylpent-2-enoic acid] | > 100 | 2 fold | –
4 | O=C(O)/C=C(\COc1ccc(Cl)cc1)c1ccccc1 [PS 95, (Z)-4-(4-Chlorophenoxy)-3-phenylbut-2-enoic acid] | > 60 | 2.7 fold | –
5 | O=C(O)/C=C(/COc1ccc(Cl)cc1)c1ccccc1 [PS 97, (E)-4-(4-Chlorophenoxy)-3-phenylbut-2-enoic acid] | 22.8 | 3.0 fold | –
6 | O=C(O)/C=C(\c1ccccc1)c1cc2cc(Cl)ccc2s1 [PS 119, (E)-3-(5-Chloro-2-benzothiophenyl)-3-phenylacrylic acid] | 13.2 | 3.1 fold | –
7 | Cc1ccc2oc(C(CC(=O)O)c3ccccc3)cc2c1 (centres unmarked) [PS 120, 3-(5-Methyl-2-benzofuranyl)-3-phenylpropanoic acid] | 29.1 | 2.7 fold | –
8 | O=C(O)CC(c1ccccc1)c1cc2cc(Cl)ccc2o1 (centres unmarked) [PS 124, 3-(5-Chloro-2-benzofuranyl)-3-phenylpropanoic acid] | 19 | 2.9 fold | –
9 | CCc1ccc(CC/C(=C\C(=O)O)c2ccccc2)cc1 [PS 129, (E)-5-(4-Ethylphenyl)-3-phenylpent-2-enoic acid] | > 100 | 1.5 fold | –
10 | CCc1ccc(CC/C(=C/C(=O)O)c2ccccc2)cc1 [PS 130, (Z)-5-(4-Ethylphenyl)-3-phenylpent-2-enoic acid] | > 30 | 1.4 fold | –
11 | O=C(O)/C=C(\CCc1ccc(Cl)c(Cl)c1)c1ccccc1 [PS 131, (E)-5-(3,4-Dichlorophenyl)-3-phenylpent-2-enoic acid] | > 100 | 2 fold | –
12 | O=C(O)/C=C(\CCc1ccc(Cl)cc1Cl)c1ccccc1 [PS 135, (E)-5-(2,4-Dichlorophenyl)-3-phenylpent-2-enoic acid] | – | n.e. | AC50 PDK1 (μM) [1]: n.e.
13 | O=C(O)/C=C(\CCc1ccc(F)cc1)c1ccccc1 [PS 136, (E)-5-(4-Fluorophenyl)-3-phenylpent-2-enoic acid] | > 100 | 1.3 fold | –
14 | O=C(O)/C=C(\CCc1ccc(Br)cc1)c1ccccc1 [PS 137, (E)-5-(4-Bromophenyl)-3-phenylpent-2-enoic acid] | > 100 | 2 fold | –
15 | O=C(O)/C=C(\CCc1ccc2ccccc2c1)c1ccccc1 [PS 138, (E)-5-(2-Naphthalenyl)-3-phenylpent-2-enoic acid] | 27.1 | 3.1 fold | –
16 | O=C(O)/C=C(\CCc1ccc(C(F)(F)F)cc1)c1ccccc1 [PS 140, (E)-3-Phenyl-5-[4-(trifluoromethyl)phenyl]pent-2-enoic acid] | – | n.e. | AC50 PDK1 (μM) [1]: n.e.
17 | O=C(O)/C=C(\CCc1c[nH]c2ccccc12)c1ccccc1 [PS 158, (E)-5-(1H-Indol-3-yl)-3-phenylpent-2-enoic acid] | 34.6 | 2.9 fold | –
18 | O=C(O)/C=C(/CCc1c[nH]c2ccccc12)c1ccccc1 [PS 159, (Z)-5-(1H-Indol-3-yl)-3-phenylpent-2-enoic acid] | 9.3 | 3.7 fold | –
19 | O=C(O)CC(Cc1nc2c(Cl)cc(Cl)cc2[nH]1)c1ccc(Cl)cc1 (centres unmarked) [PS 171, 4-(5,7-Dichloro-2-benzimidazolyl)-3-(4-chlorophenyl)butanoic acid] | – | – | percent of catalytic activity of the Kinase in the presence of compound as compared to the solvent control (DMSO): PKA ([2]; 50 μM compound): no effect; remaining activity at 200 µM ([2]; 200 μM compound, read-out: percent of catalytic activity of the Kinase in the presence of compound as compared to the solvent control (DMSO): PKA): 80 to 90%; percent of catalytic activity of the Kinase in the presence of compound as compared to the solvent control (DMSO): S6K ([3]; 50 μM compound): weak inhib.; remaining activity at 200 µM ([3]; 200 μM compound, read-out: percent of catalytic activity of the Kinase in the presence of compound as compared to the solvent control (DMSO): S6K): ~50%; percent of catalytic activity of the Kinase in the presence of compound as compared to the solvent control (DMSO): SGK ([4]; 50 μM compound): no effect; remaining activity at 200 µM ([4]; 200 μM compound, read-out: percent of catalytic activity of the Kinase in the presence of compound as compared to the solvent control (DMSO): SGK): ~70%; percent of catalytic activity of the Kinase in the presence of compound as compared to the solvent control (DMSO): PKBβ ([5]; 50 μM compound): no effect; remaining activity at 200 µM ([5]; 200 μM compound, read-out: percent of catalytic activity of the Kinase in the presence of compound as compared to the solvent control (DMSO): PKBβ): ~70%; percent of catalytic activity of the Kinase in the presence of compound as compared to the solvent control (DMSO): PRK2 ([6]; 50 μM compound): no effect; percent of catalytic activity of the Kinase in the presence of compound as compared to the solvent control (DMSO): PRK2 ([6]; 200 μM compound): no effect; activity at 200 µM ([1]; 200 μM compound, DMSO control set 100%, read-out: percent of catalytic activity of the Kinase in the presence of compound as compared to the solvent control (DMSO): PDK1): ~200%
20 | O=C(O)/C=C(/CCc1ccc(F)cc1)c1ccccc1 [PS-T3, (Z)-5-(4-Fluorophenyl)-3-phenylpent-2-enoic acid] | 41 | 3.3 fold | –
21 | O=C(O)/C=C(/CCc1ccc2ccccc2c1)c1ccccc1 [PS-T4, (Z)-5-(2-Naphthalenyl)-3-phenylpent-2-enoic acid] | 4 | more than 4 fold | max. activation of PDK1 (fold) ([1]; listed as T4): 4.2 fold
22 | O=C(O)/C=C(/CCc1ccc(Cl)c(Cl)c1)c1ccccc1 [PS-T7, (Z)-5-(3,4-Dichlorophenyl)-3-phenylpent-2-enoic acid] | 8 | 3.4 fold | –
23 | O=C(O)/C=C(/CCc1ccc(Cl)cc1Cl)c1ccccc1 [PS-T9, (Z)-5-(2,4-Dichlorophenyl)-3-phenylpent-2-enoic acid] | 9.4 | 2.2 fold | –
